Experimental data: PMC9632963, “Preclinical characterization and phase I clinical trial of CT053PTSA targets MET, AXL, and VEGFR2 in patients with advanced solid tumors” (Frontiers in Immunology, 2022)

System: patients with advanced solid tumors
Test: Phase I trial: safety, tolerability, DLT, MTD (CTCAE v4.0)
Assay type: in vivo
Source text: Eligible patients had at least one measurable lesion per RECIST v 1.1, Eastern Cooperative Oncology Group (ECOG) performance status of 0 or 1, and adequate hematological, renal, cardiac and hepatic functions. The primary objectives were to assess safety and tolerability as well as to determine the MTD, DLT, and dose recommended for further study. The secondary objectives were to assess the PK and preliminary efficacy of CT053PTSA.
An initial accelerated titration design was used in the 15 and 30 mg QD cohorts, and the “3+3” schema was used starting in the 60 mg QD cohort. […] The study protocol was approved by an institutional review board at Sun Yat-sen University Cancer Center. Written informed consent was obtained from all the patients before enrollment.
Descriptive statistics of safety are presented per CTCAE v4.0. Subjects who received at least one dose of CT053PTSA were considered eligible to be evaluated and included in safety analyses. […] According to the RECIST 1.1 criteria, imaging examinations were performed at each specified time point in the protocol. The antitumor activity was measured by RECIST1.1.

Cc1c(C(=O)Nc2ccc(Oc3ccnc4cc(OCC(C)(C)O)ccc34)c(F)c2)c(=O)n(-c2ccccc2)n1C [CT053PTSA]
Platelet count decreased, ≥ G3 (150mg (n = 5)): 1 (20) n (%)
Proteinuria, All (150mg (n = 5)): 0 n (%)
Proteinuria, ≥ G3 (150mg (n = 5)): 0 n (%)
Pyrexia, All (150mg (n = 5)): 1 (20) n (%)
Pyrexia, ≥ G3 (150mg (n = 5)): 0 n (%)
Sinus bradycardia, All (150mg (n = 5)): 1 (20) n (%)
Sinus bradycardia, ≥ G3 (150mg (n = 5)): 0 n (%)
Stomatitis, All (150mg (n = 5)): 1 (20) n (%)
Stomatitis, ≥ G3 (150mg (n = 5)): 1 (20) n (%)
Vomiting, All (150mg (n = 5)): 1 (20) n (%)
Vomiting, ≥ G3 (150mg (n = 5)): 0 n (%)
leukopenia, All (150mg (n = 5)): 3 (60) n (%)
leukopenia, ≥ G3 (150mg (n = 5)): 1 (20) n (%)
neutropenia, All (150mg (n = 5)): 2 (40) n (%)
neutropenia, ≥ G3 (150mg (n = 5)): 0 n (%)
transaminase elevation, All (150mg (n = 5)): 4 (80) n (%)
transaminase elevation, ≥ G3 (150mg (n = 5)): 0 n (%)
patients with DLT / patients eligible for DLT assessment (150 mg QD): 2/4 and Two of four
Anaemia, All (All (n = 20)): 1 (5) n (%)
Anaemia, ≥ G3 (All (n = 20)): 0 n (%)
Blood chloride decreased, All (All (n = 20)): 1 (5) n (%)
Blood chloride decreased, ≥ G3 (All (n = 20)): 0 n (%)
Blood creatinine increased, All (All (n = 20)): 1 (5) n (%)
Blood creatinine increased, ≥ G3 (All (n = 20)): 0 n (%)
Blood potassium decreased, All (All (n = 20)): 1 (5) n (%)
Blood potassium decreased, ≥ G3 (All (n = 20)): 0 n (%)
Blood sodium decreased, All (All (n = 20)): 1 (5) n (%)
Blood sodium decreased, ≥ G3 (All (n = 20)): 1 (5) n (%)
Blood uric acid increased, All (All (n = 20)): 1 (5) n (%)
Blood uric acid increased, ≥ G3 (All (n = 20)): 0 n (%)
Decreased appetite, All (All (n = 20)): 6 (30) n (%)
Decreased appetite, ≥ G3 (All (n = 20)): 1 (5) n (%)
Diarrhea, All (All (n = 20)): 2 (10) n (%)
Diarrhea, ≥ G3 (All (n = 20)): 0 n (%)
Dizziness, All (All (n = 20)): 1 (5) n (%)
Dizziness, ≥ G3 (All (n = 20)): 0 n (%)
Dry mouth, All (All (n = 20)): 1 (5) n (%)
Dry mouth, ≥ G3 (All (n = 20)): 0 n (%)
Electrocardiogram QT prolonged, All (All (n = 20)): 3 (15) n (%)
Electrocardiogram QT prolonged, ≥ G3 (All (n = 20)): 0 n (%)
Electrolyte imbalance, All (All (n = 20)): 1 (5) n (%)
Electrolyte imbalance, ≥ G3 (All (n = 20)): 0 n (%)
Hemoglobin decreased, All (All (n = 20)): 1 (5) n (%)
Hemoglobin decreased, ≥ G3 (All (n = 20)): 0 n (%)
Hypertension, All (All (n = 20)): 4 (20) n (%)
Hypertension, ≥ G3 (All (n = 20)): 1 (5) n (%)
Hyponatremia, All (All (n = 20)): 2 (10) n (%)
Hyponatremia, ≥ G3 (All (n = 20)): 0 n (%)
Hypoparathyroidism, All (All (n = 20)): 1 (5) n (%)
Hypoparathyroidism, ≥ G3 (All (n = 20)): 0 n (%)
Mouth ulceration, All (All (n = 20)): 1 (5) n (%)
Mouth ulceration, ≥ G3 (All (n = 20)): 0 n (%)
Nausea, All (All (n = 20)): 2 (10) n (%)
Nausea, ≥ G3 (All (n = 20)): 0 n (%)
Oropharyngeal pain, All (All (n = 20)): 1 (5) n (%)
Oropharyngeal pain, ≥ G3 (All (n = 20)): 0 n (%)
Pain, All (All (n = 20)): 1 (5) n (%)
Pain, ≥ G3 (All (n = 20)): 0 n (%)
Palmar-plantar erythrodysaesthesia syndrome, All (All (n = 20)): 1 (5) n (%)
Palmar-plantar erythrodysaesthesia syndrome, ≥ G3 (All (n = 20)): 0 n (%)
Platelet count decreased, All (All (n = 20)): 6 (30) n (%)
Platelet count decreased, ≥ G3 (All (n = 20)): 2 (10) n (%)
Proteinuria, All (All (n = 20)): 1 (5) n (%)
Proteinuria, ≥ G3 (All (n = 20)): 0 n (%)
Pyrexia, All (All (n = 20)): 1 (5) n (%)
Pyrexia, ≥ G3 (All (n = 20)): 0 n (%)
Sinus bradycardia, All (All (n = 20)): 1 (5) n (%)
Sinus bradycardia, ≥ G3 (All (n = 20)): 0 n (%)
Stomatitis, All (All (n = 20)): 2 (10) n (%)
Stomatitis, ≥ G3 (All (n = 20)): 1 (5) n (%)
Vomiting, All (All (n = 20)): 1 (5) n (%)
Vomiting, ≥ G3 (All (n = 20)): 0 n (%)
leukopenia, All (All (n = 20)): 9 (45) n (%)
leukopenia, ≥ G3 (All (n = 20)): 1 (5) n (%)
neutropenia, All (All (n = 20)): 7 (35) n (%)
neutropenia, ≥ G3 (All (n = 20)): 0 n (%)
transaminase elevation, ≥ G3 (All (n = 20)): 1 (5) n (%)
TRAE any grade: decreased appetite (all patients n = 20): 30%
TRAE any grade: decreased platelet count (all patients n = 20): 30%
TRAE any grade: hypertension (all patients n = 20): 20%
TRAE any grade: leukopenia (all patients n = 20): 45%
TRAE any grade: neutropenia (all patients n = 20): 35%
TRAE any grade: transaminase elevation (all patients n = 20): 65%
grade 3 TRAE: decreased appetite (all patients n = 20): 5%
grade 3 TRAE: decreased blood sodium (all patients n = 20): 5%
grade 3 TRAE: decreased platelet count (all patients n = 20): 10%
grade 3 TRAE: elevated transaminase (all patients n = 20): 5%
grade 3 TRAE: hypertension (all patients n = 20): 5%
grade 3 TRAE: leukopenia (all patients n = 20): 5%
grade 3 TRAE: stomatitis (all patients n = 20): 5%
patients with at least one adverse event (AE) (all patients n = 20): 95%
patients with grade 3 TRAEs (all patients n = 20): 15%
patients with treatment-related adverse events (TRAEs) (all patients n = 20): 80%
recommended dose for further study (in vivo): 60~100 mg QD
MTD (oral QD): 100 mg
